Measurements: US9708314B2, “Heterocyclic amide compound” (NISSAN CHEMICAL INDUSTRIES, LTD., priority 2013, dated 2017)

What was measured:
Assay type in all cases: in vivo
[1] = test system: transplanted Oryza sativa; assay: Test Example 1: effect on crop, application before weed generation in submerged conditions; details: Application herbicide amount 320 g/ha; Seventeenth Table
How it was run: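 Rating, on a six-step scale from almost no effect (0) to almost completely withered (5), was made three weeks after pre-emergence treatment. Treatment was surface application to flooded pots at g/ha rates, with plants kept at 25° C. to 30° C.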

Brassica campestris L. = assay: Test Example 4: effect on crop by application to foliage (diluvial soil, plastic box); details: Application herbicide amount 320 g/ha; foliage application
How it was run: (§1)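 Emulsion-formulated compound, diluted to a predetermined g/ha dose, applied by small sprayer to leaves and stems of 14-day-old seedlings grown in sterilized diluvial soil. Effect rated on 0–5 herbicidal-ratio scale three weeks on.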

Triticum aestivum = assay: as above; details: Application herbicide amount 320 g/ha; foliage application
How it was run: as §1

[2] = test system: Beta vulgaris ssp. vulgaris; assay: as above; details: Application herbicide amount 320 g/ha; foliage application
How it was run: as §1

Glycine max = assay: as above; details: Application herbicide amount 320 g/ha; foliage application
How it was run: as §1

Zea mays = assay: as above; details: Application herbicide amount 320 g/ha; foliage application
How it was run: as §1

Digitaria ciliaris = assay: Test Example 4: herbicidal effect by application to foliage (diluvial soil, plastic box); details: Application herbicide amount 320 g/ha; foliage application
How it was run: as §1

Setaria viridis = assay: as above; details: Application herbicide amount 320 g/ha; foliage application
How it was run: as §1

Apera spica-venti. = assay: as above; details: Application herbicide amount 320 g/ha; foliage application
How it was run: as §1

[3] = test system: Echinochloa crus-galli var. crus-galli; assay: as above; details: Application herbicide amount 320 g/ha; foliage application
How it was run: as §1

Chenopodium album = assay: as above; details: Application herbicide amount 320 g/ha; foliage application
How it was run: as §1

Avena fatua = assay: as above; details: Application herbicide amount 320 g/ha; foliage application
How it was run: as §1

Alopecurus myosuroides = assay: as above; details: Application herbicide amount 320 g/ha; foliage application
How it was run: as §1

Stellaria media = assay: as above; details: Application herbicide amount 320 g/ha; foliage application
How it was run: as §1

Galium spurium = assay: as above; details: Application herbicide amount 320 g/ha; foliage application
How it was run: as §1

Amaranthus retroflexus = assay: as above; details: Application herbicide amount 320 g/ha; foliage application
How it was run: as §1

Lolium multiflorum Lam. = assay: as above; details: Application herbicide amount 320 g/ha; foliage application
How it was run: as §1

Abutilon theophrasti = assay: as above; details: Application herbicide amount 320 g/ha; foliage application
How it was run: as §1

Veronica persica = assay: as above; details: Application herbicide amount 320 g/ha; foliage application
How it was run: as §1

Row | Structure (SMILES) | a: transplanted Oryza sativa (effect on crop grade) [1] | g (Brassica campestris L.) effect on crop grade (Brassica campestris L.) | e (Triticum aestivum) effect on crop grade (Triticum aestivum) | f (Beta vulgaris ssp. vulgaris) effect on crop grade [2] | d (Glycine max) effect on crop grade (Glycine max) | c (Zea mays) effect on crop grade (Zea mays) | F (Digitaria ciliaris) herbicidal effect grade (Digitaria ciliaris) | G (Setaria viridis) herbicidal effect grade (Setaria viridis) | L (Apera spica-venti.) herbicidal effect grade (Apera spica-venti.) | H (Echinochloa crus-galli var. crus-galli) herbicidal effect grade [3] | O (Chenopodium album) herbicidal effect grade (Chenopodium album) | I (Avena fatua) herbicidal effect grade (Avena fatua) | J (Alopecurus myosuroides) herbicidal effect grade (Alopecurus myosuroides) | P (Stellaria media) herbicidal effect grade (Stellaria media) | Q (Galium spurium) herbicidal effect grade (Galium spurium) | N (Amaranthus retroflexus) herbicidal effect grade (Amaranthus retroflexus) | K (Lolium multiflorum Lam.) herbicidal effect grade (Lolium multiflorum Lam.) | M (Abutilon theophrasti) herbicidal effect grade (Abutilon theophrasti) | R (Veronica persica) herbicidal effect grade (Veronica persica)
1 | CSCCNc1nnc2c(C(=O)Nc3nnc(C)o3)ccc(C(F)(F)F)n12 [1-130] | 1 (Herbicidal ratio of 5% or more and less than 20%) | 4 (Herbicidal ratio of 70% or more and less than 90%) | 0 (Herbicidal ratio of 5% or less (almost no effect)) | 5 (Herbicidal ratio of 90% or more (almost completely withered)) | 3 (Herbicidal ratio of 40% or more and less than 70%) | 0 (Herbicidal ratio of 5% or less (almost no effect)) | 4 (Herbicidal ratio of 70% or more and less than 90%) | 4 (Herbicidal ratio of 70% or more and less than 90%) | 1 (Herbicidal ratio of 5% or more and less than 20%) | 5 (Herbicidal ratio of 90% or more (almost completely withered)) | 5 (Herbicidal ratio of 90% or more (almost completely withered)) | 1 (Herbicidal ratio of 5% or more and less than 20%) | 1 (Herbicidal ratio of 5% or more and less than 20%) | 3 (Herbicidal ratio of 40% or more and less than 70%) | 4 (Herbicidal ratio of 70% or more and less than 90%) | 3 (Herbicidal ratio of 40% or more and less than 70%) | 1 (Herbicidal ratio of 5% or more and less than 20%) | 3 (Herbicidal ratio of 40% or more and less than 70%) | 3 (Herbicidal ratio of 40% or more and less than 70%)
2 | Cc1nnc(NC(=O)c2ccc(C(F)(F)F)n3c(NCC(F)(F)F)nnc23)o1 [1-131] | 0 (Herbicidal ratio of 5% or less (almost no effect)) | 0 (Herbicidal ratio of 5% or less (almost no effect)) | 0 (Herbicidal ratio of 5% or less (almost no effect)) | 3 (Herbicidal ratio of 40% or more and less than 70%) | 3 (Herbicidal ratio of 40% or more and less than 70%) | 0 (Herbicidal ratio of 5% or less (almost no effect)) | 4 (Herbicidal ratio of 70% or more and less than 90%) | 3 (Herbicidal ratio of 40% or more and less than 70%) | 0 (Herbicidal ratio of 5% or less (almost no effect)) | 4 (Herbicidal ratio of 70% or more and less than 90%) | 5 (Herbicidal ratio of 90% or more (almost completely withered)) | 0 (Herbicidal ratio of 5% or less (almost no effect)) | 0 (Herbicidal ratio of 5% or less (almost no effect)) | 3 (Herbicidal ratio of 40% or more and less than 70%) | 0 (Herbicidal ratio of 5% or less (almost no effect)) | 3 (Herbicidal ratio of 40% or more and less than 70%) | 0 (Herbicidal ratio of 5% or less (almost no effect)) | 3 (Herbicidal ratio of 40% or more and less than 70%) | 3 (Herbicidal ratio of 40% or more and less than 70%)
3 | Cc1nnc(NC(=O)c2ccc(C(F)(F)F)n3c(N(C)C4CCCCC4)nnc23)o1 [1-133] | 0 (Herbicidal ratio of 5% or less (almost no effect)) | 0 (Herbicidal ratio of 5% or less (almost no effect)) | 0 (Herbicidal ratio of 5% or less (almost no effect)) | 3 (Herbicidal ratio of 40% or more and less than 70%) | 3 (Herbicidal ratio of 40% or more and less than 70%) | 0 (Herbicidal ratio of 5% or less (almost no effect)) | 3 (Herbicidal ratio of 40% or more and less than 70%) | 0 (Herbicidal ratio of 5% or less (almost no effect)) | 0 (Herbicidal ratio of 5% or less (almost no effect)) | 4 (Herbicidal ratio of 70% or more and less than 90%) | 4 (Herbicidal ratio of 70% or more and less than 90%) | 0 (Herbicidal ratio of 5% or less (almost no effect)) | 0 (Herbicidal ratio of 5% or less (almost no effect)) | 4 (Herbicidal ratio of 70% or more and less than 90%) | 1 (Herbicidal ratio of 5% or more and less than 20%) | 3 (Herbicidal ratio of 40% or more and less than 70%) | 0 (Herbicidal ratio of 5% or less (almost no effect)) | 3 (Herbicidal ratio of 40% or more and less than 70%) | 2 (Herbicidal ratio of 20% or more and less than 40%)
4 | CCN(C)c1nnc2c(C(=O)Nc3nnc(C)o3)ccc(C(F)(F)F)n12 [1-134] | 0 (Herbicidal ratio of 5% or less (almost no effect)) | 4 (Herbicidal ratio of 70% or more and less than 90%) | 1 (Herbicidal ratio of 5% or more and less than 20%) | 5 (Herbicidal ratio of 90% or more (almost completely withered)) | 3 (Herbicidal ratio of 40% or more and less than 70%) | 0 (Herbicidal ratio of 5% or less (almost no effect)) | 4 (Herbicidal ratio of 70% or more and less than 90%) | 3 (Herbicidal ratio of 40% or more and less than 70%) | 1 (Herbicidal ratio of 5% or more and less than 20%) | 5 (Herbicidal ratio of 90% or more (almost completely withered)) | 5 (Herbicidal ratio of 90% or more (almost completely withered)) | 0 (Herbicidal ratio of 5% or less (almost no effect)) | 1 (Herbicidal ratio of 5% or more and less than 20%) | 4 (Herbicidal ratio of 70% or more and less than 90%) | 3 (Herbicidal ratio of 40% or more and less than 70%) | 3 (Herbicidal ratio of 40% or more and less than 70%) | 1 (Herbicidal ratio of 5% or more and less than 20%) | 4 (Herbicidal ratio of 70% or more and less than 90%) | 4 (Herbicidal ratio of 70% or more and less than 90%)
5 | CCN(CC)c1nnc2c(C(=O)Nc3nnc(C)o3)ccc(C(F)(F)F)n12 [1-135] | 1 (Herbicidal ratio of 5% or more and less than 20%) | 0 (Herbicidal ratio of 5% or less (almost no effect)) | 0 (Herbicidal ratio of 5% or less (almost no effect)) | 4 (Herbicidal ratio of 70% or more and less than 90%) | 3 (Herbicidal ratio of 40% or more and less than 70%) | 0 (Herbicidal ratio of 5% or less (almost no effect)) | 4 (Herbicidal ratio of 70% or more and less than 90%) | 3 (Herbicidal ratio of 40% or more and less than 70%) | 1 (Herbicidal ratio of 5% or more and less than 20%) | 4 (Herbicidal ratio of 70% or more and less than 90%) | 5 (Herbicidal ratio of 90% or more (almost completely withered)) | 1 (Herbicidal ratio of 5% or more and less than 20%) | 1 (Herbicidal ratio of 5% or more and less than 20%) | 4 (Herbicidal ratio of 70% or more and less than 90%) | 0 (Herbicidal ratio of 5% or less (almost no effect)) | 3 (Herbicidal ratio of 40% or more and less than 70%) | 1 (Herbicidal ratio of 5% or more and less than 20%) | 3 (Herbicidal ratio of 40% or more and less than 70%) | 1 (Herbicidal ratio of 5% or more and less than 20%)
